The values below come from publication PMC9258321, “Structure-guided design of CPPC-paired disulfide-rich peptide libraries for ligand and drug discovery” (Chemical Science, 2022).

Bridge positions count the residues as written; N and C are the ends. Square brackets hold non-standard residues; d marks the D form. Peptide text beside a SMILES is read from it. * marks the point of attachment. FITC = O=C1OC2(c3ccc(O)cc3Oc3cc(O)ccc32)c2ccc(NC(=S)*)cc21; βAla = NCCC(=O)O

In one data set the target is T1, Keap1 (Homo sapiens, UniProt Q14145).
T1 construct: another target (the Kelch domain of Keap1)
T1 sequence (Q14145 321-609 limits assumed, species assumed): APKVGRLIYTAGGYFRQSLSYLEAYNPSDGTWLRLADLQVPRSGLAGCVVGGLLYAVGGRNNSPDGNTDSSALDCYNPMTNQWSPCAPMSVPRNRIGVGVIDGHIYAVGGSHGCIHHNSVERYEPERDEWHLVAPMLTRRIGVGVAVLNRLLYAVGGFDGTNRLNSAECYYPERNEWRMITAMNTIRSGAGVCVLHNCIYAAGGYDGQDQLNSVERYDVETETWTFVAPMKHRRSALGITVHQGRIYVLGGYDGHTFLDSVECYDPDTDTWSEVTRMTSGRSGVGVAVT
Put plainly: Surface plasmon resonance (SPR) assay, affinity of peptides to Keap1. Particulars: Biacore T200, 25 °C, biotinylated Keap1 on CAP chip, peptide 25-1600 nM, flow 30 μL/min, multi-cycle affinity method, oxidized, HPLC-purified peptide, read-out: equilibrium dissociation constant (KD) toward Keap1. In kind it is binding. As to the method: Surface plasmon resonance (SPR) assay
The affinity of peptides to Keap1 was measured using Biacore T200 (GE healthcare) at 25℃. At first, Keap1 was linked to a Biacore CAP chip via the interaction of biotin and avidin (Biotinylation of Keap1 occurs through the preceding reaction, Biacore CAP chip was performed through a Biotin CAPture Kit (GE healthcare)). Then, different concentrations of peptides were used in experiment (25, 50, 100, 200, 400, 800, 1600 nM) at a flow rate of 30 μL/min. The binding affinity and kinetics constants were quanti-fied by a multi-cycle affinity method.
NMR samples were dissolved in 80% perdeuterated acetonitrile and 20% H2O for drp1, 75% perdeu-terated acetonitrile and […] for drp2-a, 60% perdeuterated acetonitrile and 40% H2O for drp8, 50% perdeuterated acetonitrile and 50% H2O for drp3 and drp6, 40% perdeuterated acetonitrile and 60% H2O for drp2-b and drp4 (The solution conditions depend on the dispersion of cross -peaks). All of NMR samples were prepared in a final concentration of about 1 mM. […] Two dimensional (2D) 1H, 15N/13C HSQC spectra were recorded to obtain chemical shifts of heavy atoms in backbone and side-chains. […]
The backbone dihedral angle restraints were obtained using programs TALOS -N based on chemical shifts of backbone resonances6. […] The structures were visualized in PyMol, and the quality of structures was analyzed using PROCHECK 9. […]

Another data set deals with MDM2. Put plainly: Fluorescence polarization (FP) competition assay, binding to MDM2. Conditions: FP competition assay described previously (ref 32 method); oxidized products; Fig. S3. The text has this: The most abundantly enriched sequences from both selections were then synthesized, and their oxidative folding in redox buffers were examined using HPLC. Oxidation of the MDM2-binding peptide (drp2) yields two products (drp2-a and drp2-b) in a ratio of ∼1 : 3 (Fig. 2c). […] The structures of the two products were then characterized using NMR (Fig. 2c; PDB 7W8O and 7W8R). Both products can maintain a stable, but different 3D structure with a conserved α-helix responsible for target recognition, corresponding to the parallel and antiparallel dimeric pairing of the two CPPC motifs in the peptide (drp2-a and drp2-b, respectively). […]
min incubation at room temperature, the fluorescence anisotropies were measured using a plate reader (Eex= 485 nm, Eem=535 nm). All of the measurements were recorded in triplicate. In the fluorescence polarization assay s measuring the binding of reduced FITC-drp8 to CD28 and the binding of oxidized FITC-drp8 to CTLA-4, the fluorescence anisotrop ies were recorded in the same way as described above.
Dissociation constants ( KD) were determined by nonlinear regression analysis of anisotrop ies versus the concentrations of the protein using the following equation: […]
(b) Competition fluorescence polarization assay. The binding of drp8 to CD28 was measured by adding dilutions of drp8 to premixed oxidized FITC-drp8 and CD28 in PBS (pH 7.4). […]

Data set [1] is described as follows: Circular dichroism (CD) thermal denaturation. Format: physicochemical. Particulars: CD 190-260 nm, 61 μM in pure water, scans at 25, 45, 75 and 95 °C; only a small decline of CD signals up to 95 °C; Fig. S7. An excerpt: (§1) from 2% agarose gel (containing 0.005% v/v of 4S Red Plus Nucleic Acid Stain) used a commercial agarose gel purification kit (E.Z.N.A® Gel Extraction Kit, OMEGA BIO-TEK, USA). Then, Novogene Co., Ltd. was commissioned for sequence identification. The data were processed and analyzed using […]
All peptides were synthesized on a CEM Liberty Blue automated microwave peptide synthesizer by standard Fmoc solid-phase chemistry on a Rink Amide MBHA resin (0.025 mmol scale). Coupling reac-tions were performed with a Fmoc-AA-OH (5 eq., 0.2 M solution in DMF), DIC (5 eq., 0.25 M solution in DMF) and Oxyma Pure (5 eq., 1.0 M solution in DMF). Fmoc groups were removed using a 20% (v/v) solution of piperidine in DMF. […]
(§2) In a typical experiment, reduced peptide (50 μM) was dissolved in 100 mM phosphate buffer (500 μL, pH 7.4) containing 6 M Gu·HCl, 0.5 mM GSSG and 10% DMSO (v/v). […] After analyzed by MALDI-TOF MS, the oxidized peptide was purified and lyophilized to yield […]
(§3) Circular dichroism (CD) wavelength and temperature scans were recorded for thermal denaturation experiments. […] Wavelength scans from 190 nm to 260 nm were recorded at 25℃, 45℃, 75℃ and 95℃, and temperature were carried out at a heating rate of 5℃/min in 1 mm path length cuvettes.
(§4) Fluorescence polarization (FP) assay
(§5) (a) Fluorescence polarization binding assay. […]

The next data set deals with T2, CD28 (Homo sapiens, UniProt P10747).
T2 construct: purchased Sino Biological 11524-HCCH
T2 sequence (P10747 19-220): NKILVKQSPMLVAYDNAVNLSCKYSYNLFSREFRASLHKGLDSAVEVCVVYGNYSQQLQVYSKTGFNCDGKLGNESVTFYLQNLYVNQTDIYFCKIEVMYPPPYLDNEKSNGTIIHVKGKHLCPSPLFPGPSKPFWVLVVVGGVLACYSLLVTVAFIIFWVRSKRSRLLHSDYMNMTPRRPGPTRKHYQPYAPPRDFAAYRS
Briefly: Fluorescence polarization binding assay (saturation binding of FITC-drp8 to CD28). Particulars: FP assay, same way as for oxidized FITC-drp8.
Excerpt: as §1
All peptides were synthesized on a CEM Liberty Blue automated microwave peptide synthesizer by standard Fmoc solid-phase chemistry on a Rink Amide MBHA resin (0.025 mmol scale). Coupling reac-tions were performed with a Fmoc-AA-OH (5 eq., 0.2 M solution in DMF), DIC (5 eq., 0.25 M solution in DMF) and Oxyma Pure (5 eq., 1.0 M solution in DMF). […]
as §2, §3, §4, §5
min incubation at room temperature, the fluorescence anisotropies were measured using a plate reader (Eex= 485 nm, Eem=535 nm). […]

Turning to `CC[C@H](C)[C@@H]1NC(=O)[C@H](CCC(=O)O)NC(=O)[C@@H]2CSSC[C@H](NC(=O)[C@H](CO)NC(=O)[C@H](CO)NC(=O)[C@H](C(C)C)NC(=O)[C@H](CCC(=O)O)NC(=O)[C@H](CCSC)NC(=O)[C@@H]3CSSC[C@H](NC(=O)[C@H](CCCNC(=N)N)NC(=O)[C@H](CO)NC(=O)CNC1=O)C(=O)N1CCC[C@H]1C(=O)N1CCC[C@H]1C(=O)N[C@H](C(N)=O)CSSC[C@H](NC(=O)[C@@H](N)Cc1c[nH]c4ccccc14)C(=O)N1CCC[C@H]1C(=O)N1CCC[C@H]1C(=O)N3)C(=O)N[C@@H](CC(=O)O)C(=O)N[C@@H](CCC(=O)O)C(=O)N[C@@H](CCC(=O)O)C(=O)N[C@@H]([C@@H](C)O)C(=O)NCC(=O)N[C@@H](CCC(=O)O)C(=O)N2` [drp6] (H-WCPPCMEVSSCDEETGECEIGSRCPPC-NH2; disulfide 2-27, 5-24, 11-18), at Keap1, the dissociation constant Kd turned out to be 47 nM.
On to “H-GCPPCESCHSGESTFWCYWEALCPPC-NH2 (also: bicyclic or more (positions not given here)) [drp2-a, oxidized product of drp2]”, for which, in the data set on MDM2, the “affinity to MDM2 (in words)” value was “subnanomolar affinity”.
Consider “H-SCPPCHGRPTCTKPGDNATPEKLAKYQACWELLTCPPC-OH (also: bicyclic or more (positions not given here)) [drp4, drp1 grafted with loop-α-helix fold of PPα-Tyr; recombinantly produced in E. coli as SUMO fusion]”, for which the “thermal stability of the 3D structure (CD signal)” value in data set [1] is listed as “extremely stable to thermal treatment”.
“{FITC}-[βAla]GCPPCPREHELVAVPCEGLNNCWFVEACPPC-NH2 (cysteine pairing not given here) [reduced drp8, reduced form of fluorescein-labeled drp8]”: the “binding of reduced labeled peptide to CD28 (in words)” value on CD28 is reported as “negligible”.
